{"source": "the CombiSolv-Exp solvation set (Vermeire and Green 2021)", "test": "solvent given as SMILES"}
{"smiles": "CCCCCCCCCCCC", "values": [{"measurement": "solvation free energy, 298 K", "setting": "in CCCCCC", "result": -8.24, "unit": "kcal/mol"}, {"measurement": "solvation free energy, 298 K", "setting": "in CN(C)C=O", "result": -6.15, "unit": "kcal/mol"}, {"measurement": "solvation free energy, 298 K", "setting": "in OCCOCCO", "result": -4.02, "unit": "kcal/mol"}, {"measurement": "solvation free energy, 298 K", "setting": "in OCCOCCOCCO", "result": -4.27, "unit": "kcal/mol"}, {"measurement": "solvation free energy, 298 K", "setting": "in OCCOCCOCCOCCO", "result": -4.58, "unit": "kcal/mol"}]}
{"smiles": "CCCCC=O", "values": [{"measurement": "solvation free energy, 298 K", "setting": "in CC(C)CC(C)(C)C", "result": -4.24, "unit": "kcal/mol"}, {"measurement": "solvation free energy, 298 K", "setting": "in CCCCCCCC", "result": -3.97, "unit": "kcal/mol"}, {"measurement": "solvation free energy, 298 K", "setting": "in CN1CCCC1=O", "result": -4.67, "unit": "kcal/mol"}, {"measurement": "solvation free energy, 298 K", "setting": "in CO", "result": -4.87, "unit": "kcal/mol"}, {"measurement": "solvation free energy, 298 K", "setting": "in NC=O", "result": -3.77, "unit": "kcal/mol"}, {"measurement": "solvation free energy, 298 K", "setting": "in O", "result": -3.01, "unit": "kcal/mol"}, {"measurement": "solvation free energy, 298 K", "setting": "in O=CN1CCOCC1", "result": -4.49, "unit": "kcal/mol"}, {"measurement": "solvation free energy, 298 K", "setting": "in [2H]O[2H]", "result": -2.89, "unit": "kcal/mol"}]}
{"smiles": "O=c1[nH]cc(I)c(=O)[nH]1", "values": [{"measurement": "solvation free energy, 298 K", "setting": "in O", "result": -18.7, "unit": "kcal/mol"}]}
{"smiles": "Cc1ccc2c(C)ccc(C(C)C)c2c1", "values": [{"measurement": "solvation free energy, 298 K", "setting": "in O", "result": -2.5, "unit": "kcal/mol"}]}
{"smiles": "O=C(O)C(O)c1ccccc1", "note": "(configuration not stated)", "values": [{"measurement": "solvation free energy, 298 K", "setting": "in C=CCCCCCCC=C", "result": -9.41, "unit": "kcal/mol"}, {"measurement": "solvation free energy, 298 K", "setting": "in O", "result": -13.7, "unit": "kcal/mol"}]}
{"smiles": "NC(N)=O", "values": [{"measurement": "solvation free energy, 298 K", "setting": "in O", "result": -13.6, "unit": "kcal/mol"}]}
{"smiles": "CCCCCC(=O)OC", "values": [{"measurement": "solvation free energy, 298 K", "setting": "in CCCCCC", "result": -5.65, "unit": "kcal/mol"}, {"measurement": "solvation free energy, 298 K", "setting": "in CCCCCCC", "result": -5.63, "unit": "kcal/mol"}, {"measurement": "solvation free energy, 298 K", "setting": "in CCCCCCCC", "result": -5.55, "unit": "kcal/mol"}, {"measurement": "solvation free energy, 298 K", "setting": "in CCCCCCCCCC", "result": -5.48, "unit": "kcal/mol"}, {"measurement": "solvation free energy, 298 K", "setting": "in CO", "result": -5.84, "unit": "kcal/mol"}, {"measurement": "solvation free energy, 298 K", "setting": "in O", "result": -2.5, "unit": "kcal/mol"}]}
{"smiles": "O=C1c2ccccc2-c2ccccc21", "values": [{"measurement": "solvation free energy, 298 K", "setting": "in CC(C)(C)O", "result": -10.4, "unit": "kcal/mol"}, {"measurement": "solvation free energy, 298 K", "setting": "in CC(C)CC(C)(C)C", "result": -9.57, "unit": "kcal/mol"}, {"measurement": "solvation free energy, 298 K", "setting": "in CC(C)CCO", "result": -10.5, "unit": "kcal/mol"}, {"measurement": "solvation free energy, 298 K", "setting": "in CC(C)CO", "result": -10.3, "unit": "kcal/mol"}, {"measurement": "solvation free energy, 298 K", "setting": "in CC(C)O", "result": -10.4, "unit": "kcal/mol"}, {"measurement": "solvation free energy, 298 K", "setting": "in CC(C)OC(C)C", "result": -10.5, "unit": "kcal/mol"}, {"measurement": "solvation free energy, 298 K", "setting": "in CCC(C)O", "result": -10.5, "unit": "kcal/mol"}, {"measurement": "solvation free energy, 298 K", "setting": "in CCCCC(CC)CO", "result": -10.5, "unit": "kcal/mol"}, {"measurement": "solvation free energy, 298 K", "setting": "in CCCCCC", "result": -9.78, "unit": "kcal/mol"}, {"measurement": "solvation free energy, 298 K", "setting": "in CCCCCCC", "result": -9.83, "unit": "kcal/mol"}, {"measurement": "solvation free energy, 298 K", "setting": "in CCCCCCCC", "result": -9.86, "unit": "kcal/mol"}, {"measurement": "solvation free energy, 298 K", "setting": "in CCCCCCCCC=CCCCCCCCC(=O)OCC(COC(=O)CCCCCCCC=CCCCCCCCC)OC(=O)CCCCCCCC=CCCCCCCCC", "result": -10.5, "unit": "kcal/mol"}, {"measurement": "solvation free energy, 298 K", "setting": "in CCCCCCCCCC", "result": -9.9, "unit": "kcal/mol"}, {"measurement": "solvation free energy, 298 K", "setting": "in CCCCCCCCCCO", "result": -10.6, "unit": "kcal/mol"}, {"measurement": "solvation free energy, 298 K", "setting": "in CCCCCCCCO", "result": -10.7, "unit": "kcal/mol"}, {"measurement": "solvation free energy, 298 K", "setting": "in CCCCCCCO", "result": -10.7, "unit": "kcal/mol"}, {"measurement": "solvation free energy, 298 K", "setting": "in CCCCCCO", "result": -10.6, "unit": "kcal/mol"}, {"measurement": "solvation free energy, 298 K", "setting": "in CCCCCO", "result": -10.6, "unit": "kcal/mol"}, {"measurement": "solvation free energy, 298 K", "setting": "in CCCCO", "result": -10.6, "unit": "kcal/mol"}, {"measurement": "solvation free energy, 298 K", "setting": "in CCCO", "result": -10.6, "unit": "kcal/mol"}, {"measurement": "solvation free energy, 298 K", "setting": "in CCO", "result": -10.6, "unit": "kcal/mol"}, {"measurement": "solvation free energy, 298 K", "setting": "in CO", "result": -10.6, "unit": "kcal/mol"}, {"measurement": "solvation free energy, 298 K", "setting": "in COC(C)(C)C", "result": -11, "unit": "kcal/mol"}, {"measurement": "solvation free energy, 298 K", "setting": "in ClC(Cl)(Cl)Cl", "result": -11.5, "unit": "kcal/mol"}, {"measurement": "solvation free energy, 298 K", "setting": "in ClCCl", "result": -12, "unit": "kcal/mol"}, {"measurement": "solvation free energy, 298 K", "setting": "in Fc1ccccc1", "result": -11.7, "unit": "kcal/mol"}, {"measurement": "solvation free energy, 298 K", "setting": "in O", "result": -5.78, "unit": "kcal/mol"}]}
{"smiles": "COc1ccc(C=O)cc1O", "values": [{"measurement": "solvation free energy, 298 K", "setting": "in O", "result": -9.04, "unit": "kcal/mol"}]}
{"smiles": "C=C(c1ccccc1)c1ccccc1", "values": [{"measurement": "solvation free energy, 298 K", "setting": "in O", "result": -2.78, "unit": "kcal/mol"}]}
{"smiles": "CCCCCC(=O)c1c(C)[nH]n(-c2ccccc2)c1=O", "values": [{"measurement": "solvation free energy, 298 K", "setting": "in O", "result": -9.26, "unit": "kcal/mol"}]}
{"smiles": "COC(CCl)(OC)OC", "values": [{"measurement": "solvation free energy, 298 K", "setting": "in O", "result": -4.59, "unit": "kcal/mol"}]}
{"smiles": "CNCc1ccc(C)cc1", "values": [{"measurement": "solvation free energy, 298 K", "setting": "in O", "result": -5.95, "unit": "kcal/mol"}]}
{"smiles": "c1ccc2c(c1)CCCC2", "values": [{"measurement": "solvation free energy, 298 K", "setting": "in CCC(C)=O", "result": -7.43, "unit": "kcal/mol"}, {"measurement": "solvation free energy, 298 K", "setting": "in CCCCCCC", "result": -7.03, "unit": "kcal/mol"}, {"measurement": "solvation free energy, 298 K", "setting": "in CCO", "result": -6.29, "unit": "kcal/mol"}, {"measurement": "solvation free energy, 298 K", "setting": "in O=Cc1ccco1", "result": -7.02, "unit": "kcal/mol"}, {"measurement": "solvation free energy, 298 K", "setting": "in OCCO", "result": -4.97, "unit": "kcal/mol"}, {"measurement": "solvation free energy, 298 K", "setting": "in OCCOCCO", "result": -5.9, "unit": "kcal/mol"}, {"measurement": "solvation free energy, 298 K", "setting": "in OCCOCCOCCO", "result": -6.07, "unit": "kcal/mol"}]}
{"smiles": "C=CCO", "values": [{"measurement": "solvation free energy, 298 K", "setting": "in CC(=O)N(C)C", "result": -4.69, "unit": "kcal/mol"}, {"measurement": "solvation free energy, 298 K", "setting": "in CCCCN(C=O)CCCC", "result": -5.42, "unit": "kcal/mol"}, {"measurement": "solvation free energy, 298 K", "setting": "in CNC(C)=O", "result": -5.87, "unit": "kcal/mol"}, {"measurement": "solvation free energy, 298 K", "setting": "in O", "result": -5.04, "unit": "kcal/mol"}]}
{"smiles": "CCCCCCCCCCOC(=O)c1ccccc1C(=O)OCC", "values": [{"measurement": "solvation free energy, 298 K", "setting": "in O", "result": -6.78, "unit": "kcal/mol"}]}
{"smiles": "CCCCC(=O)O", "values": [{"measurement": "solvation free energy, 298 K", "setting": "in O", "result": -6.13, "unit": "kcal/mol"}]}
{"smiles": "C=CCC(C)C", "values": [{"measurement": "solvation free energy, 298 K", "setting": "in C=CCCCCCCCCCCCCCC", "result": -3.23, "unit": "kcal/mol"}, {"measurement": "solvation free energy, 298 K", "setting": "in O", "result": 1.9, "unit": "kcal/mol"}]}
{"smiles": "CCCCOCCO", "values": [{"measurement": "solvation free energy, 298 K", "setting": "in O", "result": -6.25, "unit": "kcal/mol"}]}
{"smiles": "C=CC1(C)CCC(C(=C)C)CC1C(=C)C", "note": "(configuration not stated)", "values": [{"measurement": "solvation free energy, 298 K", "setting": "in O", "result": -0.42, "unit": "kcal/mol"}]}
{"smiles": "CC(C)=NO", "values": [{"measurement": "solvation free energy, 298 K", "setting": "in CCCCCC", "result": -3.74, "unit": "kcal/mol"}]}
{"smiles": "CCCCCCCCCCC", "values": [{"measurement": "solvation free energy, 298 K", "setting": "in CCCCCC", "result": -7.56, "unit": "kcal/mol"}, {"measurement": "solvation free energy, 298 K", "setting": "in CN(C)C=O", "result": -5.57, "unit": "kcal/mol"}, {"measurement": "solvation free energy, 298 K", "setting": "in COCCO", "result": -5.15, "unit": "kcal/mol"}]}
{"smiles": "FC(F)(F)c1ccccc1C(F)(F)F", "values": [{"measurement": "solvation free energy, 298 K", "setting": "in O", "result": 1.07, "unit": "kcal/mol"}]}
{"smiles": "c1nc[nH]n1", "values": [{"measurement": "solvation free energy, 298 K", "setting": "in COC(C)=O", "result": -10.3, "unit": "kcal/mol"}, {"measurement": "solvation free energy, 298 K", "setting": "in O", "result": -11.6, "unit": "kcal/mol"}]}
{"smiles": "CC(C)c1ccc2c(c1)CCC1C(C)(C)CCCC21C", "note": "(configuration not stated)", "values": [{"measurement": "solvation free energy, 298 K", "setting": "in O", "result": -0.37, "unit": "kcal/mol"}]}
{"smiles": "CCCCCCCCOC(=O)c1ccccc1C(=O)OCCCC", "values": [{"measurement": "solvation free energy, 298 K", "setting": "in O", "result": -6.83, "unit": "kcal/mol"}]}
